Where “and” joins values, the source holds several entries; their conditions need not be identical. Equal entries are not always repeated.
Legend:
[1] = tested on: SARS-CoV-2 viral infection; test: Treatment of a patient suffering from COVID-19; assay type: in vivo; settings: human patient, intravenous, subcutaneous, or oral, daily for 21 days
SARS-CoV-2 [2] = test: microbe, parasite or virus in culture; assay type: cell-based; settings: Severe acute respiratory syndrome coronavirus 2; SARS-CoV-2 infected cells, dose response FIG. 3; read-out: EC50 against SARS-CoV-2
SARS CoV-2 = test: Antiviral efficacy of GC376 and REMDESIVIR in golden Syrian hamsters challenged intranasally with SARS-CoV-2, IP; assay type: in vivo, golden Syrian female hamsters; settings: for body weights: IP injection for eight days, versus control animals with SARS-CoV-2 alone; for lung PFU: lung samples, days 4 and 14
Description: The animals were sacrificed at days 4, 8, or 14 following initiation of the experiment and the various tissues were then collected for analysis. Detailed experimental design and experimental parameters can be found in FIG. 9A, FIG. 9B, and FIG. 10.

SARS-CoV-2 [3] = test: Antiviral efficacy in hamsters challenged intranasally with SARS-CoV-2, S.C. GC376; assay type: in vivo, hamster; settings: for trachea PFU: trachea samples
Description: The hamsters were sacrificed and various tissues were collected for analysis.

[4] = tested on: 17 coronavirus proteases from human and animal coronaviruses; assay type: cell-based
[5] = tested on: COVID-19/SARS-CoV-2 virus; assay type: cell-based
SARS-CoV-2 virus = test: Prophylactic treatment of a patient susceptible to COVID-19; assay type: in vivo; settings: human patient at risk, daily for 21 days beginning one week prior to possible exposure
[6] = CC50 in the structure table of GC543 and GC583 (no method given); assay type: cell-based; settings: cells not given

CC(C)C[C@H](NC(=O)OCc1ccccc1)C(=O)N[C@@H](C[C@@H]1CCNC1=O)C(O)S(=O)(=O)[O-].[Na+] (stereo partly drawn) [GC376]
outcome after 21 days of treatment [1]: recovered from the SARS-CoV-2 infection
EC50 (SARS-CoV-2 [2]): ~0.81 µM
body weights (SARS CoV-2): maintained similar body weights to the control animals
lung PFU (SARS CoV-2): reduction of PFU at days 4 and 14
body weight at 10 mg/kg/day and 25 mg/kg/day (SARS-CoV-2 [3]; 10 mg/kg/day and 25 mg/kg/day, versus infected controls without GC376): appeared to lose more weight initially, but by the eighth day following initiation of the experiment had a body weight that was similar to the control animals
lung PFU versus control (SARS-CoV-2 [3]; 100 mg/kg/day cohort): had fewer PFUs in their lungs than the control animal, although two animals had more PFUs than the control
body weights of individual hamsters (SARS-CoV-2 [3]; each individual hamster, days 0-8, any dose): trend show for each animal to regain its normal body weight
trachea PFU (SARS-CoV-2 [3]; 100 mg/kg/day group): did show noticeable PFU formation from trachea samples
trachea PFU (SARS-CoV-2 [3]; all groups): most of the animals did not show PFUs from samples taken from the trachea
activity against coronavirus proteases [4]: activity across all coronaviruses tested, including SARS-CoV-2
lowering of virus titer ([5]; 5 μM GC376 versus virus solution without GC376): approximately 15 fold
PFU/ml, average ([5]; virus solution with 5 μM GC376, average of three replicate plates): 2.1×10^6 pfu/ml
PFU/ml, each replicate plate ([5]; virus solution with 5 μM GC376, individual plates): 2.75×10^6 pfu/ml and 2.25×10^6 pfu/ml and 1.30×10^6 pfu/ml
outcome after prophylactic treatment (SARS-CoV-2 virus): not have developed COVID-19 or a SARS-CoV-2 infection

O=C[C@@H](C[C@@H]1CCNC1=O)NC(=O)[C@H](CC1CCCCC1)NC(=O)OCc1ccccc1 [GC543]
CC50 [6]: > 100 µM

O=C[C@@H](C[C@@H]1CCNC1=O)NC(=O)[C@H](CC1CCCCC1)NC(=O)OCc1cccc(Cl)c1 [GC583]
CC50 [6]: > 100 µM

CCC(CC)COC(=O)[C@H](C)N[P@](=O)(OC[C@H]1O[C@@](C#N)(c2ccc3c(N)ncnn23)[C@H](O)[C@@H]1O)Oc1ccccc1 [reference compound]
body weights (SARS CoV-2): maintained similar body weights to the control animals
lung PFU (SARS CoV-2): reduction of PFU at days 4 and 14

From US20210292277A1 (priority 2020, published 2021)
